Reference: patent US20220062296A1, “COMBINATIONS OF GABAA ALPHA 5 AGONISTS AND SV2A INHIBITORS AND METHODS OF USING IN THE TREATMENT OF COGNITIVE IMPAIRMENT” (AGENEBIO, INC., priority 2020, published 2022)

Columns and labels:
[1] = cited from earlier work
[2] = tested on: entorhinal cortex of aMCI subjects; assay: fMRI activity in entorhinal cortex (EC) during explicit 3-alternative forced choice task; format: in vivo, human; conditions: levetiracetam 125 mg twice a day for two weeks
Protocol: A within-subjects trial of 8 weeks duration, involving 17 amnestic MCI (aMCI) subjects and 17 age-matched controls with a low dose treatment of levetiracetam is conducted. During the course of the study, each aMCI subject receives both drug and placebo treatments separately in two periods of two weeks each, with the order of treatments among different aMCI subjects counterbalanced (see FIG. 4). Age-matched control subjects treated with placebo serve as a further control. Cognitive testing and fMRI imaging data are obtained from the subjects after each two-week period of drug/placebo treatment. Imaging data are obtained through high-resolution methods developed in the Stark laboratory. Data are collected on a Phillips 3 Tesla scanner (Eindhoven, The Netherlands) equipped with an 8-channel SENSE (Sensitivity Encoding) head coil, located at the F.M. Kirby Research Center for Functional Brain Imaging at the Kennedy Krieger Institute (Baltimore, Md.). […] Group data are analyzed using a two-way Analysis of Variance (ANOVA) with trial types and group as fixed factors, and subject as a random factor nested within group. […] The activity of the subject's medial temporal lobe is measured by functional MRI during the subject's participation in an explicit 3-alternative forced choice task, where participants view novel, repeated and similar (“lure”) stimuli. […]

[3] = tested on: DG/CA3 of aMCI subjects; assay: fMRI activity in DG/CA3 during explicit 3-alternative forced choice task; format: in vivo, human; conditions: for DG/CA3 hyperactivity: two weeks

SMILES: CC[C@@H](C(N)=O)N1CCCC1=O [levetiracetam, (2S)-2-(2-oxopyrrolidin-1-yl)butanamide]
- plasma half-life in elderly ([1]; expected, due to decreased renal function): 9 to 10 h
- time to steady state ([1]; multiple twice-daily dosing): 2 days
- plasma half-life ([1]; oral administration): approximately 7±1 hour
- absorption after oral administration ([1]; oral): rapidly and almost completely absorbed
- effect of food on bioavailability ([1]; oral): not affected by food
- time of peak plasma concentrations following oral administration ([1]; oral): about 1 hour
- EC activity during memory judgments [2]: increases EC activity
- DG/CA3 hyperactivity ([3]; levetiracetam 62.5 mg BID cohort): does not significantly reduce
- DG/CA3 activity during lure stimuli correctly identified as similar ([3]; levetiracetam 125 mg twice a day for two weeks, vs placebo, p=0.037): reduces DG/CA3 hyper-activity
- DG/CA3 hyperactivity ([3]; levetiracetam 250 mg BID cohort): does not significantly reduce
